Some test systems named below: A549 NSCLC; OVCAR-5 ovarian; NCI-H460 lung; HOP-62 NSCLC; SK-MEL-28 melanoma; SF-295 CNS; UACC-257 melanoma; RXF 393 renal; SNB-75 CNS; HCC-2998 colon.
Experiment in all cases: NCI anticancer screen, dose series, 48 h

Structures are written as SMILES.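 Step 1: Grow cells in 96-well plates. Step 2: Expose to compound for 48 hours at 5 concentrations. Step 3: Interpolate endpoints linearly; if unreached, use highest concentration. The concentration for 50% growth inhibition is given as GI50. TGI: concentration producing complete growth inhibition.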 Some results are limits rather than exact numbers.

As for `Cc1[nH]c2ccccc2c1-c1cc(-c2cc(-c3c(C)[nH]c4ccccc34)nc(N)n2)nc(N)n1`, the TGI with A549 NSCLC, in the experiment on OVCAR-5 ovarian, in the experiment with NCI-H460 lung, with HOP-62 NSCLC, with SK-MEL-28 melanoma and in the experiment on SF-295 CNS was greater than 100 µM each time. In the experiment with UACC-257 melanoma, the TGI is greater than 100 µM.
For `COc1cc(O)c2c(c1)C(=O)C=C(Cl)C2=O`, the TGI in the experiment with RXF 393 renal, with A549 NSCLC, with SNB-75 CNS, with OVCAR-5 ovarian, in the experiment with HCC-2998 colon and in the experiment with SK-MEL-28 melanoma was greater than 100 µM each time. The TGI with SF-295 CNS and in the experiment on UACC-257 melanoma was greater than 100 µM in each case.
As for `O=c1c(O)cccc2cc(O)c(O)c(O)c12`, the GI50 in the experiment with RXF 393 renal is 13.3 µM; with A549 NSCLC, greater than 100000 nM; with OVCAR-5 ovarian, 41.8 µM; in the experiment on NCI-H460 lung, 6.86 µM; in the experiment on HCC-2998 colon, greater than 100000 nM; in the experiment with HOP-62 NSCLC it was greater than 100000 nM. Besides, the GI50 is 32300 nM with SK-MEL-28 melanoma, 5.28 µM in the experiment on SF-295 CNS and 5.84 µM in the experiment on UACC-257 melanoma. For the same compound, the TGI in the experiment on RXF 393 renal, with A549 NSCLC, in the experiment with OVCAR-5 ovarian, in the experiment with NCI-H460 lung, in the experiment with HCC-2998 colon and in the experiment on HOP-62 NSCLC was greater than 100 µM throughout. The TGI in the experiment with SK-MEL-28 melanoma, in the experiment with SF-295 CNS and in the experiment with UACC-257 melanoma was greater than 100 µM in each case.
As for `Clc1ccc(C2=Nn3c(nnc3-c3cc(Cl)cc(Cl)c3Cl)SC2)cc1`, the GI50 in the experiment on A549 NSCLC was 56500 nM; with SNB-75 CNS it was 14.8 µM; in the experiment on OVCAR-5 ovarian it was 36.7 µM; in the experiment on NCI-H460 lung, 41.3 µM; in the experiment on HOP-62 NSCLC, 14500 nM; in the experiment on SK-MEL-28 melanoma it was greater than 100000 nM. The figures for the GI50 in the experiment with SF-295 CNS and with UACC-257 melanoma were 11 µM and 33.2 µM, respectively. Also, the TGI with A549 NSCLC is greater than 100 µM; in the experiment on SNB-75 CNS, 34.2 µM; with OVCAR-5 ovarian it was greater than 100 µM; in the experiment with NCI-H460 lung it was greater than 100 µM; in the experiment on HOP-62 NSCLC, 32.5 µM; in the experiment with SK-MEL-28 melanoma, greater than 100 µM. The values for the TGI in the experiment on SF-295 CNS and in the experiment with UACC-257 melanoma were 29.3 µM and greater than 100 µM, respectively.
As for `COC1=CC23CCCN2CCc2cc4c(cc2C3C1O)OCO4` (stereo unspecified), the TGI with A549 NSCLC, in the experiment on SNB-75 CNS, with OVCAR-5 ovarian, with NCI-H460 lung, in the experiment with HCC-2998 colon and with SK-MEL-28 melanoma was greater than 100 µM in each case. Besides, the TGI with SF-295 CNS and in the experiment on UACC-257 melanoma was greater than 100 µM each time.
Turning to `Cc1cc2cn3c4ccc(O)cc4[nH]c(=O)c3c2cc1C`, the GI50 with RXF 393 renal is 0.0258 µM; in the experiment on A549 NSCLC, 30.8 nM; in the experiment with OVCAR-5 ovarian, 0.223 µM; with HCC-2998 colon, 67.9 nM; in the experiment on HOP-62 NSCLC it was 41.5 nM; in the experiment on SK-MEL-28 melanoma it was 34.6 nM. The results for the GI50 in the experiment with SF-295 CNS and with UACC-257 melanoma were 0.0356 µM and 0.0416 µM, respectively. Besides, the TGI in the experiment on RXF 393 renal came out at 1.43 µM; in the experiment on A549 NSCLC it was 1.04 µM; with OVCAR-5 ovarian it was 2.02 µM; in the experiment with HCC-2998 colon, 1.3 µM; in the experiment on HOP-62 NSCLC, 1.33 µM; with SK-MEL-28 melanoma, 1.74 µM. The TGI is 0.221 µM in the experiment with SF-295 CNS and 1.31 µM with UACC-257 melanoma.
Take `COC(=O)CCC(=O)Nc1cc(Cl)ccc1Cl`: the TGI is 65.8 µM with RXF 393 renal; greater than 100 µM with A549 NSCLC; greater than 100 µM in the experiment on OVCAR-5 ovarian; greater than 100 µM in the experiment on NCI-H460 lung; greater than 100 µM in the experiment with HCC-2998 colon; greater than 100 µM with HOP-62 NSCLC. Further, the TGI with SK-MEL-28 melanoma, in the experiment on SF-295 CNS and with UACC-257 melanoma was greater than 100 µM in each case.
On to `O=C(O)/C(Cl)=C(\Cl)C(=O)NC1C2CC3CC(C2)CC1C3` (stereo unspecified), for which the TGI in the experiment with A549 NSCLC, in the experiment on SNB-75 CNS, with OVCAR-5 ovarian, with HCC-2998 colon, in the experiment with HOP-62 NSCLC and in the experiment on SK-MEL-28 melanoma was greater than 100 µM in each case. Besides, the TGI with SF-295 CNS and in the experiment with UACC-257 melanoma was greater than 100 µM each time.
As to `COc1ccc(C(=O)C(c2ccc(OC)cc2)C2OC(=O)C(Cl)=C2Cl)cc1` (stereo unspecified), the TGI in the experiment on RXF 393 renal, with A549 NSCLC, in the experiment on OVCAR-5 ovarian, with NCI-H460 lung, with HCC-2998 colon and in the experiment on HOP-62 NSCLC was greater than 100 µM each time. The TGI in the experiment on SK-MEL-28 melanoma, in the experiment with SF-295 CNS and with UACC-257 melanoma was greater than 100 µM each time.
With `COc1ccc(NC(=O)CC/C(CC(=O)C(C)(C)C)=N\NC(=O)C(N)=O)cc1`, the TGI with RXF 393 renal, with A549 NSCLC, in the experiment on OVCAR-5 ovarian, in the experiment with NCI-H460 lung, in the experiment on HCC-2998 colon and in the experiment with HOP-62 NSCLC was greater than 100 µM throughout. The TGI in the experiment with SK-MEL-28 melanoma, in the experiment with SF-295 CNS and in the experiment on UACC-257 melanoma was greater than 100 µM throughout.
On to `CCN1C2=NCCN2S(=O)(=O)c2ccccc21`, for which the TGI in the experiment on RXF 393 renal, in the experiment on A549 NSCLC, in the experiment on OVCAR-5 ovarian, with NCI-H460 lung, in the experiment on HCC-2998 colon and in the experiment with HOP-62 NSCLC was greater than 100 µM throughout. The TGI with SK-MEL-28 melanoma, in the experiment on SF-295 CNS and with UACC-257 melanoma was greater than 100 µM throughout.
Regarding `CCCCCCCCCCCCCCCC[N+](C)(CCO)Cc1cnc[nH]1` (stereo unspecified), the GI50 in the experiment on A549 NSCLC was 1490 nM; in the experiment on SNB-75 CNS, 1.11 µM; in the experiment with HCC-2998 colon it was 1140 nM; in the experiment with HOP-62 NSCLC, 456 nM; in the experiment with SK-MEL-28 melanoma, 2700 nM; in the experiment with SF-295 CNS, 1.18 µM. In addition, the GI50 with UACC-257 melanoma was 4.08 µM. The TGI in the experiment on A549 NSCLC amounted to 5.57 µM; in the experiment with SNB-75 CNS, 5.86 µM; in the experiment with HCC-2998 colon, 2.73 µM; with HOP-62 NSCLC, 1.68 µM; with SK-MEL-28 melanoma, 9.78 µM; in the experiment on SF-295 CNS, 4.01 µM. The same compound displayed a TGI in the experiment with UACC-257 melanoma of 72.7 µM.
